From US7776880B2, “Derivatives of pyrrolizine, indolizine and quinolizine, preparation thereof and therapeutic use thereof” (sanofi-aventis, priority 2006, dated 2010) come the findings set out here.

Where a name gives a salt, the structure may show the parent alone.

One data set deals with T1, native human transporter GlyT1 (Homo sapiens, UniProt P48067).
T1 construct: SK-N-MC cells (human neuroepithelial cells) expressing the native human transporter GlyT1; endogenous in cells; host or cells: SK-N-MC (human neuroepithelial cells)
T1 sequence (P48067 1-706): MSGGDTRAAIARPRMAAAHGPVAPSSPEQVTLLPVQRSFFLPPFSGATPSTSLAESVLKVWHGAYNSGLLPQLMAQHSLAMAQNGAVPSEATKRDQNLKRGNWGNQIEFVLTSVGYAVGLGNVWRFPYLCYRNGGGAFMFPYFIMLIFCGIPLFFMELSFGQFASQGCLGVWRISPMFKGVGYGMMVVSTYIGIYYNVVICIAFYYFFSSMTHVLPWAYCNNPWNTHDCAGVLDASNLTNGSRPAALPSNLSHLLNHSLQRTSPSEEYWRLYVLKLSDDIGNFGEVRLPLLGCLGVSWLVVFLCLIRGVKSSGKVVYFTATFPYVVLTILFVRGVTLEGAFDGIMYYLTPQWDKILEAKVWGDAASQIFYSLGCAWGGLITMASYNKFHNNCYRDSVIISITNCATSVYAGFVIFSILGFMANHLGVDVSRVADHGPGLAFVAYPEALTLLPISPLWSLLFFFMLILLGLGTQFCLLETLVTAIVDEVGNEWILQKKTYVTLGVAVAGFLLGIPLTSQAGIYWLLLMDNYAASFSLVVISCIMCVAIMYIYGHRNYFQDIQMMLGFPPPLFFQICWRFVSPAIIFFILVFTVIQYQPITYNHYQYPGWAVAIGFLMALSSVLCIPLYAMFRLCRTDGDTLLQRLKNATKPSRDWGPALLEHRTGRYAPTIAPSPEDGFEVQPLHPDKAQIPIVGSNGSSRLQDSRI
In words: Uptake of [14C]glycine in SK-N-MC cells expressing the native human transporter GlyT1. To be noted: 10 μM [14C]glycine, 10 min preincubation and 10 min incubation at 37° C., pH 7.4, read-out: IC50, the concentration of the compound which reduces by 50% the specific uptake of glycine. The format is cell-based. How it is done:
Study of glycine transportation in SK-N-MC cells expressing the native human transporter GlyT1.
The uptake of [^14C]glycine is studied in SK-N-MC cells (human neuroepithelial cells) expressing the native human transporter GlyT1 by measuring the radioactivity incorporated in the presence or absence of the test compound. The cells are cultured as a monolayer for 48 hours in plates pretreated with 0.02% fibronectin. On the day of the experiment, the culture medium is removed and the cells are washed with Krebs-HEPES (4-(2-hydroxyethyl)piperazine-1-ethanesulphonic acid) buffer at pH 7.4. After preincubation for 10 minutes at 37° C. in the presence either of buffer (control batch) or of test compound at various concentrations or of 10 mM of glycine (determination of the non-specific uptake), 10 μM of [^14C]glycine (specific activity 112 mCi/mmol) are subsequently added. Incubation is continued for 10 min at 37° C. and the reaction is halted by washing twice with pH 7.4 Krebs-HEPES buffer. The radioactivity incorporated by the cells is then estimated after adding 100 μl of liquid scintillant and stirring for 1 h. Counting is carried out on a Microbeta Tri-Lux™ counter. The effectiveness of the compound is determined by the IC50, the concentration of the compound which reduces by 50% the specific uptake of glycine, defined by the difference in radioactivity incorporated by the control batch and the batch which received the 10 mM glycine.
With `O=C(NC(c1ccccc1)C1CCCC2CCCN21)c1cccc(C(F)(F)F)c1Cl` (racemic) [Compound 1, trans-threo-2-Chloro-N-[(octahydroindolizin-5-yl)phenylmethyl]-3-trifluoromethyl-benzamide hydrochloride 1:1], the IC50 came out at 0.08 µM. The same measure, in the same setting: in the case of `O=C(N[C@H](c1ccccc1)[C@@H]1CCC[C@H]2CCCN21)c1cccc(C(F)(F)F)c1Cl` (racemic) [Compound 2, trans-erythro-2-chloro-N-[(octahydroindolizin-5-yl)phenylmethyl]-3-trifluoromethyl-benzamide hydrochloride 1:1] it was 0.023 µM; in that of `O=C(NC(c1ccccc1)C1CCC2CCCCN21)c1cccc(C(F)(F)F)c1Cl` (racemic) [Compound 5, trans-threo-2-Chloro-N-[(octahydroindolizin-3-yl)phenylmethyl]-3-trifluoromethyl-benzamide hydrochloride 1.1], 0.003 µM.

System in another data set: not given
Assay: not given
Settings: not given
Molecule `O=C(NC(c1ccccc1)C1CCCC2CCCN21)c1cccc(C(F)(F)F)c1Cl` (racemic) (as salt: HCl) [Compound 1, trans-threo-2-Chloro-N-[(octahydroindolizin-5-yl)phenylmethyl]-3-trifluoromethyl-benzamide hydrochloride 1:1] registered a melting point of 132 to 134 °C. On the same count and under the same terms, then `O=C(N[C@H](c1ccccc1)[C@@H]1CCC[C@H]2CCCN21)c1cccc(C(F)(F)F)c1Cl` (racemic) (as salt: HCl) [Compound 2, trans-erythro-2-chloro-N-[(octahydroindolizin-5-yl)phenylmethyl]-3-trifluoromethyl-benzamide hydrochloride 1:1], with 132 to 134 °C. In the case of `O=C(NC(c1ccccc1)C1CCC2CCCCN21)c1cccc(C(F)(F)F)c1Cl` (racemic) (as salt: HCl) [Compound 5, trans-threo-2-Chloro-N-[(octahydroindolizin-3-yl)phenylmethyl]-3-trifluoromethyl-benzamide hydrochloride 1.1], the melting point was 138 to 139 °C.

As usually defined, the melting point is the temperature of the solid-liquid transition.
